Measured values as given in publication PMC9238401, “Peptide Conjugates Derived from flg15, Pep13, and PIP1 That Are Active against Plant-Pathogenic Bacteria and Trigger Plant Defense Responses” (Applied and Environmental Microbiology, 2022).
Non-standard residues stand in square brackets, D forms with d. Residues, ends and D or L forms follow the SMILES beside them. No end group written: not given here. *: point of attachment. Butyryl = CCCC(=O)*

Experiments:
horse erythrocytes = conditions: TRIS buffer pH 7.2, 1 h, 37°C, absorbance 540 nm, relative to melittin 100 μM, ± confidence interval (α = 0.05)
Description: The toxicity of peptide conjugates to eukaryotic cells was determined as the ability to lyse erythrocytes (Table SB).
The hemolytic activity of the compounds was evaluated by determining hemoglobin release from erythrocyte suspensions of horse blood (5% vol/vol) (Oxoid) as previously described ([45]). Blood was centrifuged at 6000g for 5 min, washed three times with TRIS buffer (10 mM TRIS, 150 mM NaCl, pH 7.2) and diluted 10 times. Compounds were solubilized in TRIS buffer at 750, 500, 300, and 100 μM and mixed with horse erythrocytes (1:1 vol/vol). The mixture was incubated with continuous shaking for 1 h at 37°C. Then, the tubes were centrifuged at 3500g for 10 min, 80-μL aliquots of the supernatant were transferred to 100-well microplates (Bioscreen) and diluted with 80 μL water, and the absorbance measured at 540 nm (Bioscreen). […] The percentage of hemolysis (H) was calculated using the equation H = 100 × ([Op − Ob]/[Om − Ob]), where Op is the density for a given compound concentration, Ob is that for the buffer, and Om is that for the melittin positive control.

tobacco leaves = experiment: Effect of peptide infiltration on tobacco leaves (phytotoxicity); format: in vivo; conditions: 100 μL infiltrated into mesophyll, lesion diameter 48 h after infiltration, at least three leaves; ± confidence interval (α = 0.05)
Description: Peptide conjugates were also assayed for their toxicity in tobacco leaves (Fig. 3, Table SC). After 48 h of infiltration, melittin caused a necrotic area of 0.70 and 2.17 cm in diameter at 50 and 250 μM, respectively. The monomers were not phytotoxic at those concentrations; all of them led to lesions of ≤1.2 cm at 250 μM. All peptide conjugates were also less phytotoxic than melittin, causing necrotic lesions between 0.26 and 1.67 cm in diameter at 250 μM. In particular, 15 of the 30 conjugates led to a necrotic area of <1 cm at this concentration. In general, sequences incorporating BP13 were among the most phytotoxic.
Peptide conjugates were evaluated for their effect on infiltration on tobacco leaves as described previously ([41]). Peptide solutions of 50, 150, and 250 μM were infiltrated (100 μL) into the mesophylls of fully expanded tobacco leaves. Infiltrations were carried out in a single leaf, and for each peptide and dose, at least three leaves randomly distributed in different plants were inoculated. Control infiltrations with water (negative control) or melittin (positive control) at the same molar concentration were performed. The appearance of symptoms on the leaves was followed for 48 h after infiltration and measured as lesion diameter.

[1] = test system: Erwinia amylovora PMV6076; experiment: In vitro growth inhibition (MIC); format: cell-based; conditions: TSB, 25°C, 48 h, OD 600 nm (Bioscreen C), three replicates, experiment repeated twice; MIC = lowest concentration with no growth, given as range
Description: (§1) Peptide conjugates were tested for in vitro growth inhibition of the plant-pathogenic bacteria E. amylovora PMV6076, Xanthomonas arboricola pv. pruni CFBP5563, X. fragariae Xf349-9A, X. axonopodis pv. vesicatoria 2133-2, P. syringae pv. actinidiae Psa3700.1.1, and P. syringae pv. syringae EPS94 (Fig. 1, Table SA). The corresponding monomers (flg15, BP13, Pep13, PIP1, BP16, BP100, BP143, BP387, BP475, and KSL-W) were included for comparison.
(§2) The following plant-pathogenic bacterial strains were used: Erwinia amylovora PMV6076 (Institut National de la Recherche Agronomique, Angers, France), Pseudomonas syringae pv. syringae EPS94 (Institut de Tecnologia Agroalimentària, University of Girona, Spain), Xanthomonas axonopodis pv. vesicatoria 2133-2, X. axonopodis pv. vesicatoria Xav206 (Xav) (D. F. Ritchie, Department of Plant Pathology, North Carolina State University), Pseudomonas syringae pv. actinidiae Psa3700.1.1, Xanthomonas fragariae Xf349-9A (Instituto Valenciano de Investigaciones Agrarias, Valencia, Spain), and Xanthomonas arboricola pv. pruni CFBP5563 (Collection Française de Bactéries Associées aux Plantes, Angers, France). All bacteria except for X. fragariae were stored in Luria Bertani (LB) broth supplemented with glycerol (20%) and maintained at −80°C. For X. fragariae, medium B ([80]) was used instead of LB. E. amylovora, X. arboricola pv. pruni, P. syringae pv. syringae, and P. syringae pv. actinidiae were scraped from the agar medium after growing for 24 h at 25°C, and X. axonopodis pv. vesicatoria and X. fragariae, after growing for 48 h at 25°C. The cell material was suspended in sterile water to obtain a suspension of 10^8 CFU mL^−1.
(§3) Lyophilized peptides were solubilized in sterile Milli-Q water to a final concentration of 1 mM and filter-sterilized through a 0.22-μm pore filter. […] Then, 20 μL of each dilution were mixed in a microtiter plate well with 20 μL of the corresponding suspension of the bacterial indicator, 160 μL of Trypticase soy broth (TSB) (bioMérieux, France) to a total volume of 200 μL. Three replicates for each combination of strain, compound, and concentration were used. Microbial growth was determined by optical density measurement at 600 nm (Bioscreen C; Labsystem, Helsinki, Finland). Microplates were incubated at 25°C with 20 s of shaking before hourly absorbance measurement for 48 h. The experiment was repeated twice. The MIC was taken as the lowest compound concentration with no growth at the end of the experiment.

[2] = test system: Pseudomonas syringae pv. actinidiae Psa3700.1.1; experiment: In vitro growth inhibition (MIC); format: cell-based; conditions: TSB, 25°C, 48 h, OD 600 nm (Bioscreen C), three replicates, experiment repeated twice; MIC given as range
Description: as §1, §2, §3

[3] = test system: Pseudomonas syringae pv. syringae EPS94; experiment: In vitro growth inhibition (MIC); format: cell-based; conditions: TSB, 25°C, 48 h, OD 600 nm (Bioscreen C), three replicates, experiment repeated twice; MIC given as range
Description: as §1, §2, §3

[4] = test system: Xanthomonas arboricola pv. pruni CFBP5563; experiment: In vitro growth inhibition (MIC); format: cell-based; conditions: TSB, 25°C, 48 h, OD 600 nm (Bioscreen C), three replicates, experiment repeated twice; MIC given as range
Description: as §1, §2, §3

[5] = test system: Xanthomonas fragariae Xf349-9A; experiment: In vitro growth inhibition (MIC); format: cell-based; conditions: TSB, 25°C, 48 h, OD 600 nm (Bioscreen C), three replicates, experiment repeated twice; MIC given as range
Description: as §1, §2, §3

[6] = test system: Xanthomonas axonopodis pv. vesicatoria 2133-2; conditions: TSB, 25°C, 48 h, OD 600 nm (Bioscreen C), three replicates, experiment repeated twice; MIC given as range
Description: The corresponding monomers (flg15, BP13, Pep13, PIP1, BP16, BP100, BP143, BP387, BP475, and KSL-W) were included for comparison.
as §2, §3

Row | Compound | Percent hemolysis at 50 μM (horse erythrocytes) [%] | Percent hemolysis at 150 μM (horse erythrocytes) [%] | Percent hemolysis at 250 μM (horse erythrocytes) [%] | Percent hemolysis at 375 μM (horse erythrocytes) [%] | Size of the lesions in infiltrated tobacco leaves at 50 μM (tobacco leaves) [cm] | Size of the lesions in infiltrated tobacco leaves at 150 μM (tobacco leaves) [cm] | Size of the lesions in infiltrated tobacco leaves at 250 μM (tobacco leaves) [cm] | MIC, Ea [1] [µM] | MIC, Psa [2] [µM] | MIC, Pss [3] [µM] | MIC, Xap [4] [µM] | MIC, Xf [5] [µM] | MIC, Xav [6] [µM]
1 | CC[C@H](C)[C@H](NC(=O)[C@H](CCCCN)NC(=O)[C@H](CCCCN)NC(=O)[C@H](Cc1ccccc1)NC(=O)[C@H](CC(C)C)NC(=O)[C@H](CCCCN)NC(=O)[C@@H](N)CCCCN)C(=O)N[C@@H](CC(C)C)C(=O)N[C@@H](CCCCN)C(=O)N[C@@H](CCCCN)C(=O)N[C@@H](CC(C)C)C(N)=O [BP16, reference compound] | 2 ± 1 | 1 ± 0.6 | 1 ± 0.4 | 3 ± 3 | 0.08 ± 0.11 | 0.16 ± 0.16 | 0.26 ± 0.08 |  |  |  |  |  | 
2 | CC[C@H](C)[C@H](NC(=O)[C@H](CCCCN)NC(=O)[C@H](CCCCN)NC(=O)[C@H](Cc1ccccc1)NC(=O)[C@H](CC(C)C)NC(=O)[C@H](CCCCN)NC(=O)[C@@H](N)CCCCN)C(=O)N[C@@H](CC(C)C)C(=O)N[C@@H](CCCCN)C(=O)N[C@@H](Cc1ccc(O)cc1)C(=O)N[C@@H](CC(C)C)C(N)=O [BP100, reference compound] | 4 ± 0.5 | 7 ± 2 | 6 ± 0.3 | 11 ± 0.9 | 0.40 ± 0.03 |  | 1.20 ± 0.16 |  |  |  |  |  | 
3 | CC[C@H](C)[C@H](NC(=O)[C@H](CCCCN)NC(=O)[C@H](CCCCN)NC(=O)[C@@H](Cc1ccccc1)NC(=O)[C@H](CC(C)C)NC(=O)[C@H](CCCCN)NC(=O)[C@@H](N)CCCCN)C(=O)N[C@@H](CC(C)C)C(=O)N[C@@H](CCCCN)C(=O)N[C@@H](Cc1ccc(O)cc1)C(=O)N[C@@H](CC(C)C)C(N)=O [BP143, reference compound] | 3 ± 0.6 | 4 ± 0.6 | 6 ± 0.3 | 7 ± 0.3 | 0.10 ± 0.12 | 0.37 ± 0.15 | 0.65 ± 0.11 |  |  |  |  |  | 
4 | CCCC(=O)NCCCC[C@H](NC(=O)[C@@H](NC(=O)[C@H](CCCCN)NC(=O)[C@H](CCCCN)NC(=O)[C@H](Cc1ccccc1)NC(=O)[C@H](CC(C)C)NC(=O)[C@H](CCCCN)NC(=O)[C@H](CCCCN)NC(C)=O)[C@@H](C)CC)C(=O)N[C@@H](CCCCN)C(=O)N[C@@H](Cc1ccc(O)cc1)C(=O)N[C@@H](CC(C)C)C(N)=O [BP387, reference compound] (Ac-KKLFKKIK(Butyryl)KYL-NH2) | 4 ± 0.9 | 11 ± 5 | 14 ± 0.5 | 18 ± 1 | 0.32 ± 0.07 | 0.84 ± 0.10 | 0.92 ± 0.01 | 3.1 to 6.2 | 3.1 to 6.2 | 3.1 to 6.2 | 3.1 to 6.2 | 1.6 to 3.1 | 1.6 to 3.1
5 | CCCC(=O)NCCCC[C@H](NC(=O)[C@H](CCCCN)NC(=O)[C@H](CC(C)C)NC(=O)[C@@H](NC(=O)[C@H](CCCCN)NC(=O)[C@H](CCCCN)NC(=O)[C@@H](Cc1ccccc1)NC(=O)[C@H](CC(C)C)NC(=O)[C@H](CCCCN)NC(=O)[C@H](CCCCN)NC(C)=O)[C@@H](C)CC)C(=O)N[C@@H](CC(C)C)C(N)=O [BP475, reference compound] (Ac-KKL[dF]KKILKK(Butyryl)L-NH2) | 0 ± 0 | 0 ± 0 | 0 ± 0 | 0 ± 0 | 0.50 ± 0.10 | 0.70 ± 0.20 | 1.00 ± 0.10 | 3.1 to 6.2 | 1.6 to 3.1 | 3.1 to 6.2 | 0.8 to 1.6 | 1.6 to 3.1 | 1.6 to 3.1
6 | FKLFKKILKVL-KKLFKKILKKL-NH2 [BP13-BP16, peptide conjugate, BP13 at N-terminus, BP16 at C-terminus] | 86 ± 13.2 | 86 ± 1.6 | 87 ± 1.2 | 93 ± 2.3 | 0.52 ± 0.08 | 1.08 ± 0.21 | 1.40 ± 0.71 | > 50 | > 50 | > 50 | 6.2 to 12.5 | 6.2 to 12.5 | 12.5 to 25
7 | FKLFKKILKVL-KKLFKKILKYL-NH2 [BP13-BP100, peptide conjugate, BP13 at N-terminus, BP100 at C-terminus] | 100 ± 8.3 | 100 ± 5.9 | 99 ± 7.1 | 100 ± 4.8 | 0.60 ± 0.30 | 1.20 ± 0.17 | 1.30 ± 0.17 | > 50 | 25 to 50 | > 50 | 12.5 to 25 | 6.2 to 12.5 | 12.5 to 25
8 | KKVVFWVKFK-NH2 [KSL-W, reference compound] | 4 ± 1 | 5 ± 0.2 | 6 ± 1 | 20 ± 2 | 0 ± 0 | 0.37 ± 0.97 | 0.62 ± 0.45 |  |  |  |  |  | 
9 | melittin [reference compound] |  |  |  |  | 0.70 |  | 2.17 |  |  |  |  |  | 
